Test results: patent US20210403975A1, “PHENOTYPIC ANTIMICROBIAL SUSCEPTIBILITY PROFILING OF UNIDENTIFIED PATHOGENS DIRECTLY FROM PATIENT SAMPLES” (GeneFluidics, Inc., priority 2020, published 2021)
Read-outs that look alike come from different tables or passages of the source.

Legend:
P. aeruginosa ATCC 27853 = assay: MIC of the strain used in the gentamicin/meropenem checkerboard; assay type: cell-based; settings: P. aeruginosa ATCC 27853, FIG. 6A legend
Experimental: FIG. 6A-C presents a (A) P. aeruginosa ATCC 27853 5×5 checkerboard with gentamicin (MIC: 1 μg/mL) and meropenem (MIC: 0.5 μg/mL). Assay results after 3.5 hours of incubation at 37° C. (B) A 3×3 checkerboard of gentamicin and meropenem on the same P. aeruginosa strain. (C) An exemplary embodiment of a 96-well checkerboard plate for 66 combinations. ABX are gray-scaled with different intensities to represent different concentrations.
The disclosure provides for the establishment and validation of an automated protocol to assess combinations of two or more antimicrobials to assess antimicrobial susceptibility directly from pediatric patients' specimens during an emergency or unprecedented pandemic. The direct-from-specimen AST protocols discussed above are expanded into a 96-well plate-based checkerboard test to assess 66 preselected combinations of 25 antibiotics as illustrated in FIG. 6C.

CDC69 (resistant strain) = assay: Direct-from-specimen AST, GC ratio trend over increasing meropenem concentrations; assay type: cell-based; settings: CDC 69; 4-hour antibiotic exposure; meropenem 1 to 64 μg/mL; agrees with CDC AR Bank MIC
From the text: (§1) The direct-from-specimen AST disclosed herein will start with various types of specimens with an unknown concentration of pathogens, from 0 to >10^8 CFU/mL. In order to determine the minimum assay time needed for quantification of RNA transcription at different levels of pathogen concentration, a correlation between the limit of detection (LOD) of the current molecular analysis platform (see FIG. 3 steps 1-17) with the assay turnaround time (TAT) was established (see FIG. 4). […] Target pathogen enrichment and matrix component removal can be carried out by the built-in centrifugal module to achieve lower target LODs with TAT of 42 minutes to 110 minutes. For low-abundance pathogens and early infection diagnostics, additional viability culture steps with TAT of 240 minutes to 330 minutes can be included to achieve an LOD of <10 CFU/mL. The direct-from-specimen AST method disclosed herein will encompass these assay parameters. […] Semi-automatic AST tests directly from whole blood and urine contrived samples were evaluated in FIG. 5 A-C. […]
(§2) Direct-from-specimen AST Analytical Validation Protocol: (1) The user loads the specimen collection tube into the system, which then (2) scans the bar code to determine specimen type. […] The system incubates enzyme, then performs electrochemical reading and (10) AST reporting.

[1] = system: CDC77 (susceptible strain); assay: as above; assay type: cell-based; settings: 4-hour antibiotic exposure, meropenem 1 to 64 μg/mL, agrees with CDC AR Bank MIC
From the text: as §1, §2

KP 525 [2] = assay: Preliminary accelerated colistin AST, 2 hours drug-bug exposure; assay type: cell-based, Klebsiella pneumoniae; settings: colistin 0.25-8 μg/mL, 2 hours exposure
From the text: (§3) Direct-from-specimen of HR approach. HR is a poorly characterized phenomenon and the lack of consensus-based standards further complicates the study of antibiotic resistance. In addition, its clinical relevance is uncertain due to a lack of a standardized procedure to be implemented into the current workflow in clinical microbiology laboratories. […] FIG. 8C is the HR testing on the system.

CDC KP 522 [3] = assay: as above; assay type: cell-based, Klebsiella pneumoniae; settings: colistin 0.25-8 μg/mL, 2 hours exposure
From the text: as §3

CDC KP 522 [4] = settings: cited from earlier work
[5] = system: CDC Enterobacter cloacae (EbC) 545; settings: CDC EbC 545; cited from earlier work
[6] = system: Klebsiella pneumoniae (KP) 138; settings: cited from earlier work
KP 525 [7] = settings: cited from earlier work
CDC 349 E. coli = settings: cited from earlier work
[8] = system: CDC Proteus mirabilis (PM) 29; assay: Preliminary accelerated colistin AST, 2 hours drug-bug exposure; assay type: cell-based; settings: CDC PM 29; 2 hours exposure
From the text: as §3

[9] = system: Klebsiella pneumoniae (KP) 138; assay: as above; assay type: cell-based; settings: 2 hours CST exposure in stripwell, FIG. 8A
From the text: as §3

[10] = system: CDC Enterobacter cloacae (EbC) 545; assay: as above; assay type: cell-based; settings: 2 hours CST exposure in stripwell, FIG. 8A
From the text: as §3

[11] = system: CDC Proteus mirabilis (PM) 29; settings: CDC PM 29; cited from earlier work

## C[C@@H](O)[C@H]1C(=O)N2C(C(=O)O)=C(S[C@@H]3CN[C@H](C(=O)N(C)C)C3)[C@H](C)[C@H]12 [meropenem]
P. aeruginosa ATCC 27853; Pseudomonas aeruginosa, ATCC27853, read-out: MIC
  MIC: 0.5 mg/L
CDC69 (resistant strain)
  MIC reported from trend of GC ratio: 8 mg/L
[1]
  MIC reported from trend of GC ratio: < 1 mg/L

## colistin
KP 525 [2]
  growth response to colistin exposure: not affected
CDC KP 522 [3]
  growth response to colistin exposure: not affected
CDC KP 522 [4]
  MIC: > 8 mg/L
[5]
  MIC: ≤ 0.25 mg/L
[6]
  MIC: 2 mg/L
KP 525 [7]
  MIC: > 8 mg/L
CDC 349 E. coli
  MIC: 2 to 4 mg/L
[8]
  susceptibility to colistin relative to other strains tested: least susceptible
[9]
  growth response to colistin exposure: clear inhibited growth
[10]
  growth response to colistin exposure: clear inhibited growth
[11]
  MIC (listed): > 4 mg/L

## gentamicin
P. aeruginosa ATCC 27853
  MIC: 1 mg/L
